From US12516058B2, “Small-molecule compounds for controlling endosomal toll-like receptors and therapeutic agent for autoimmune diseases using same” (priority 2020, dated 2026)

Target: T1, TLR8 (Homo sapiens, UniProt Q9NR97)
T1 construct: endogenous in cells; host or cells: THP-1 (PMA-differentiated)
T1 sequence (Q9NR97 27-1041): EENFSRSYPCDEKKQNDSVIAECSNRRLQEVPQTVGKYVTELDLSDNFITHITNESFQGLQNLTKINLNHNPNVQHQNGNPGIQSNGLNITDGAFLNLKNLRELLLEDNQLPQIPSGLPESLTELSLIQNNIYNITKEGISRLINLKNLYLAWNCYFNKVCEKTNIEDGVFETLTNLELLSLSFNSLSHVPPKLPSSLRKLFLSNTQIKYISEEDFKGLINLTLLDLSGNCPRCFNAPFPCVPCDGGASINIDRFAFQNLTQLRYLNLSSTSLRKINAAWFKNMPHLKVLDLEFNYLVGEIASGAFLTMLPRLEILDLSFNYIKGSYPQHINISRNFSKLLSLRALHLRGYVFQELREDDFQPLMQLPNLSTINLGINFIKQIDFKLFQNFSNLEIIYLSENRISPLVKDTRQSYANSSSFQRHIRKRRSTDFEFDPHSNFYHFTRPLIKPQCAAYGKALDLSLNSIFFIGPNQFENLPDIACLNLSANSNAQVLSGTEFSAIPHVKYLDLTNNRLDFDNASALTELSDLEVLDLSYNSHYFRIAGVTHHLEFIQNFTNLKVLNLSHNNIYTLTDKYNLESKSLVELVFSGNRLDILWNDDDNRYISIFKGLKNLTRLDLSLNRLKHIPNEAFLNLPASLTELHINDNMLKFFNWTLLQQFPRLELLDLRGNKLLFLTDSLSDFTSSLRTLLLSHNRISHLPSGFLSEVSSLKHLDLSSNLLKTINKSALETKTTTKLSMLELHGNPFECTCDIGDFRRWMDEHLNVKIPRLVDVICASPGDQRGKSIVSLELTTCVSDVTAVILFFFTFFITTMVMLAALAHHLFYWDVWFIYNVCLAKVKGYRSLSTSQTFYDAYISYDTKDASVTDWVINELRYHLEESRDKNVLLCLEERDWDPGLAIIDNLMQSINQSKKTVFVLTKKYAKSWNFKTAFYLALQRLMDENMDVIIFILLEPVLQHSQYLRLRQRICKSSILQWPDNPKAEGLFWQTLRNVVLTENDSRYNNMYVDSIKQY
Assay: TNF-α secretion ELISA after TLR8 agonist TL8-506 in PMA-differentiated THP-1 cells
Assay type: cell-based
Details: SK01, TL8-506 4 h
Description: FIGS. 5A to 5C show the inhibitory activities of SK01 on TLRs (TLR1/2, TLR2/6 and TLR4) exposed to the cell surface, and FIGS. 5D to 5G show the inhibitory activities of SK01 against endosome TLRs (TLR3, TLR7, TLR8 and TLR9), wherein RAW 264.7 cells were treated at predetermined concentrations with a negative control, a positive control (only ligand), additional positive control (ligand and 0.25% DMSO), or SK01 for 1 hour, and then stimulated with TLR-specific agonists for 4 or 24 hours (TLR3 only), a human monocytic cell line (THP-1) was used for TLR8 and THP-1 cells were treated with phorbol 12-myristate 13-acetate for 48 hours to induce cell differentiation, then treated with SK01 for 1 hour, and was treated with the TLR8 agonist TL8-506 for 4 hours, and the level of TNF-α secretion was measured by ELISA.

Structure (SMILES): Cc1c(C)n(CCN(C)C)c2nc3c(c(N)c12)CCCCC3 [SK01, 1-(2-(dimethylamino)ethyl)-2,3-dimethyl-1,5,6,7,8,9-hexahydrocyclohepta[b]pyrrolo[3,2-e]pyridin-4-amine]
- activity against TLR8: no activity
